PMC8286840, “Identifying SARS-CoV-2 antiviral compounds by screening for small molecule inhibitors of Nsp3 papain-like protease” (Biochemical Journal, 2021)
Structures can show the parent of a compound that is named as a salt. Where two headings read alike, the source gives them in different places.

Assays:
[1] = target: T1, SARS-CoV-2 PLpro (nsp3 1564–1878) (Severe acute respiratory syndrome coronavirus 2, UniProt P0DTD1); assay: biochemical; set-up: FRET-quenched peptide (Pro3) cleavage by PLpro, 10 min pre-incubation, slope over 20 min, normalised to no-compound control; conditions: read-out: % of control remaining
[2] = target: T1, SARS-CoV-2 PLpro (nsp3 1564–1878); assay: biochemical; set-up: FRET-quenched peptide (Pro3) cleavage by PLpro, 10 min pre-incubation, slope over 20 min, normalised to no-compound control; conditions: read-out: % of control remaining; remark: listed apart in the source

Compound: CO[C@@H]1[C@H](OC(=O)/C=C/C=C/C=C/C=C/C(=O)O)CC[C@]2(CO2)[C@H]1[C@@]1(C)O[C@@H]1CC=C(C)C [Fumagillin]
- remaining activity at 3.75 µM ([1]; Well no.=1621, high concentration screen): 100%
- remaining activity at 3.75 µM ([1]; Well no.=3283, high concentration screen): 101%
- remaining activity at 1.25 µM ([2]; Well no.=1621, low concentration screen): 103%
- remaining activity at 1.25 µM ([2]; Well no.=3283, low concentration screen): 102%

Compound: CN(C)CCc1ccc(O)cc1 [Hordenine sulfate]
- remaining activity at 3.75 µM ([1]; Well no.=3106, high concentration screen): 100%
- remaining activity at 1.25 µM ([2]; Well no.=3106, low concentration screen): 97.9%

Compound: O=Cc1ccc(O)cc1 [p-Hydroxybenzaldehyde]
- remaining activity at 3.75 µM ([1]; Well no.=6531, high concentration screen): 103%
- remaining activity at 1.25 µM ([2]; Well no.=6531, low concentration screen): 103%

Compound: C[C@@H]1CCC[C@H](C)N1NC(=O)c1ccc(Cl)c(S(N)(=O)=O)c1 [Clopamide]
- remaining activity at 3.75 µM ([1]; Well no.=1773, high concentration screen): 93.8%
- remaining activity at 1.25 µM ([2]; Well no.=1773, low concentration screen): 96%

Compound: CC(C)N(CCCCOCC(=O)O)c1cnc(-c2ccccc2)c(-c2ccccc2)n1 [MRE-269]
- remaining activity at 3.75 µM ([1]; Well no.=7719, high concentration screen): 105%
- remaining activity at 1.25 µM ([2]; Well no.=7719, low concentration screen): 107%

Compound: O=C(Nc1ccc(OC(F)(F)F)cc1)c1sccc1NCc1ccnc2ccccc12 [OSI-930]
- remaining activity at 3.75 µM ([1]; Well no.=4755, high concentration screen): 103%
- remaining activity at 1.25 µM ([2]; Well no.=4755, low concentration screen): 105%

Compound: COc1ccc2c(c1)C(c1ccc(F)cc1)=C(CN1CCCC1)CO2 [AX-024 hydrochloride]
- remaining activity at 3.75 µM ([1]; Well no.=6930, high concentration screen): 95.2%
- remaining activity at 1.25 µM ([2]; Well no.=6930, low concentration screen): 97%

Compound: C[C@@H]1O[C@@H](OC[C@H]2O[C@@H](Oc3cc(O)c4c(c3)O[C@H](c3ccc(O)cc3)CC4=O)[C@H](O)[C@@H](O)[C@@H]2O)[C@H](O)[C@H](O)[C@H]1O [Narirutin]
- remaining activity at 3.75 µM ([1]; Well no.=3347, high concentration screen): 93.8%
- remaining activity at 1.25 µM ([2]; Well no.=3347, low concentration screen): 91.9%

Compound: O=C1[C@@H]2[C@H]3CC[C@H](C3)[C@@H]2C(=O)N1C[C@@H]1CCCC[C@H]1CN1CCN(c2nsc3ccccc23)CC1 [Lurasidone HCl]
- remaining activity at 3.75 µM ([1]; Well no.=4891, high concentration screen): 98%
- remaining activity at 1.25 µM ([2]; Well no.=4891, low concentration screen): 99.3%

Compound: C=C1CC[C@H](O)C/C1=C/C=C1\CCC[C@]2(C)[C@@H]([C@H](C)CCCC(C)(C)O)CC[C@@H]12 [Calcifediol]
- remaining activity at 3.75 µM ([1]; Well no.=1821, high concentration screen): 93.1%
- remaining activity at 1.25 µM ([2]; Well no.=1821, low concentration screen): 90.8%

Compound: C=CC(=O)Nc1ccc2ncnc(Nc3cccc(Br)c3)c2c1 [PD168393]
- remaining activity at 3.75 µM ([1]; Well no.=4750, high concentration screen): 104%
- remaining activity at 1.25 µM ([2]; Well no.=4750, low concentration screen): 105%

Compound: CC(C)c1cccc(C(C)C)c1N1C(=O)c2ccc(O)cc2C1=O [5HPP-33]
- remaining activity at 3.75 µM ([1]; Well no.=6085, high concentration screen): 99.4%
- remaining activity at 1.25 µM ([2]; Well no.=6085, low concentration screen): 101%

Compound: N#C/C(=C\c1ccc(O)c(O)c1)C(=O)NCc1ccccc1 [AG 490 - (E)-2-Cyano-3-(3,4-dihydrophenyl)-N-(phenylmethyl)-2-propenamide]
- remaining activity at 3.75 µM ([1]; Well no.=2332, high concentration screen): 93.5%
- remaining activity at 1.25 µM ([2]; Well no.=2332, low concentration screen): 95%

Compound: CC(C)(C(=O)O)c1ccc(C(O)CCCN2CCC(C(O)(c3ccccc3)c3ccccc3)CC2)cc1 (stereo not shown) [Fexofenadine (hydrochloride)]
- remaining activity at 3.75 µM ([1]; Well no.=6619, high concentration screen): 105%
- remaining activity at 1.25 µM ([2]; Well no.=6619, low concentration screen): 104%

Compound: Cc1c(Cl)cccc1Nc1ccccc1C(=O)O [Tolfenamic acid]
- remaining activity at 3.75 µM ([1]; Well no.=1996, high concentration screen): 99.1%
- remaining activity at 1.25 µM ([2]; Well no.=1996, low concentration screen): 97.1%

Compound: NCCS(=O)(=O)O [Taurine]
- remaining activity at 3.75 µM ([1]; Well no.=1233, high concentration screen): 104%
- remaining activity at 3.75 µM ([1]; Well no.=6299, high concentration screen): 96.7%
- remaining activity at 1.25 µM ([2]; Well no.=1233, low concentration screen): 102%
- remaining activity at 1.25 µM ([2]; Well no.=6299, low concentration screen): 98.3%

Compound: CC(N)(C(=O)O)c1ccc(C(=O)O)cc1 (racemic) [(RS)-MCPG]
- remaining activity at 3.75 µM ([1]; Well no.=8575, high concentration screen): 102%
- remaining activity at 1.25 µM ([2]; Well no.=8575, low concentration screen): 109%

Compound: NC(=O)NO [Hydroxyurea]
- remaining activity at 3.75 µM ([1]; Well no.=566, high concentration screen): 96.1%
- remaining activity at 3.75 µM ([1]; Well no.=6544, high concentration screen): 100%
- remaining activity at 1.25 µM ([2]; Well no.=566, low concentration screen): 97.4%
- remaining activity at 1.25 µM ([2]; Well no.=6544, low concentration screen): 103%

Compound: NCCCCNS(=O)(=O)c1ccc2c(Cl)cccc2c1 [N-(4-Aminobutyl)-5-chloro-2-naphthalenesulfonamide hydrochloride]
- remaining activity at 3.75 µM ([1]; Well no.=55, high concentration screen): 106%
- remaining activity at 1.25 µM ([2]; Well no.=55, low concentration screen): 104%

Compound: CCc1c2c(nc3ccc(OC(=O)N4CCC(N5CCCCC5)CC4)cc13)-c1cc3c(c(=O)n1C2)COC(=O)[C@]3(O)CC [Irinotecan]
- remaining activity at 3.75 µM ([1]; Well no.=5099, high concentration screen): 98.8%
- remaining activity at 1.25 µM ([2]; Well no.=5099, low concentration screen): 99.6%

Compound: CN1CCN(CC/C=C2/c3ccccc3Sc3ccc(S(=O)(=O)N(C)C)cc32)CC1 [Thiothixene hydrochloride]
- remaining activity at 3.75 µM ([1]; Well no.=1281, high concentration screen): 112%
- remaining activity at 1.25 µM ([2]; Well no.=1281, low concentration screen): 106%

Compound: CCN(CC)c1ncnc2c1ncn2[C@@H]1O[C@H](COP(=O)(O)OP(=O)(O)C(Br)(Br)P(=O)(O)O)[C@@H](O)[C@H]1O [ARL 67156 trisodium salt]
- remaining activity at 3.75 µM [1]: 96.3%
- remaining activity at 1.25 µM [2]: 96%

Compound: CCCCC[C@H](O)CC[C@H]1[C@H](O)CC(=O)[C@@H]1CCCCCCC(=O)O [13,14-Dihydro-prostaglandin E1]
- remaining activity at 3.75 µM ([1]; Well no.=4278, high concentration screen): 101%
- remaining activity at 1.25 µM ([2]; Well no.=4278, low concentration screen): 102%

Compound: Cc1ccc(-c2ccc3c(c2)C=C(C(=O)Nc2ccc(C[N+](C)(C)C4CCOCC4)cc2)CCC3)cc1 [TAK-779]
- remaining activity at 3.75 µM ([1]; Well no.=8357, high concentration screen): 101%
- remaining activity at 1.25 µM ([2]; Well no.=8357, low concentration screen): 102%

Compound: COc1ccc(F)c(F)c1C(=O)c1cnc(NC2CCN(S(C)(=O)=O)CC2)nc1N [R547]
- remaining activity at 3.75 µM ([1]; Well no.=4653, high concentration screen): 93.6%
- remaining activity at 1.25 µM ([2]; Well no.=4653, low concentration screen): 94.4%

Compound: S=C(NC1CCCCC1)N1CCC(c2cnc[nH]2)CC1 [Thioperamide maleate]
- remaining activity at 3.75 µM ([1]; Well no.=1234, high concentration screen): 104%
- remaining activity at 1.25 µM ([2]; Well no.=1234, low concentration screen): 102%

Compound: C[C@]12CC[C@H](O)CC1=CC[C@@H]1[C@@H]2CC[C@]2(C)C(n3cnc4ccccc43)=CC[C@@H]12 [Galeterone (TOK-001)]
- remaining activity at 3.75 µM ([1]; Well no.=5127, high concentration screen): 99.7%
- remaining activity at 1.25 µM ([2]; Well no.=5127, low concentration screen): 97.5%

Compound: Cc1ccc(S(=O)(=O)n2c(N)nc3ccccc32)cc1 [ML130]
- remaining activity at 3.75 µM ([1]; Well no.=4829, high concentration screen): 101%
- remaining activity at 1.25 µM ([2]; Well no.=4829, low concentration screen): 101%

Compound: C[N+](C)(C)CCOP(=O)(O)OP(=O)([O-])OC[C@H]1O[C@@H](n2ccc(N)nc2=O)[C@H](O)[C@@H]1O [Citicoline sodium]
- remaining activity at 3.75 µM ([1]; Well no.=375, high concentration screen): 101%
- remaining activity at 1.25 µM ([2]; Well no.=375, low concentration screen): 91.9%

Compound: N=C(N)SCCc1cccc(CCSC(=N)N)c1 [1,3-PBIT dihydrobromide]
- remaining activity at 3.75 µM ([1]; Well no.=1159, high concentration screen): 104%
- remaining activity at 1.25 µM ([2]; Well no.=1159, low concentration screen): 104%

Compound: Cc1nn(C)c(COc2ccc(N3CCN(S(=O)(=O)N(C)C)CC3)cc2)c1-c1cccc2c(CCCOc3cccc4ccccc34)c(C(=O)O)n(CCN3CCOCC3)c12 [A-1210477]
- remaining activity at 3.75 µM ([1]; Well no.=6970, high concentration screen): 101%
- remaining activity at 1.25 µM ([2]; Well no.=6970, low concentration screen): 99.5%

Compound: O=C(O)c1ccccc1C(=O)Nc1ccc(S(=O)(=O)Nc2nccs2)cc1 [Phthalylsulfathiazole]
- remaining activity at 3.75 µM ([1]; Well no.=7314, high concentration screen): 95.3%
- remaining activity at 1.25 µM ([2]; Well no.=7314, low concentration screen): 97.8%
